Data on ten molecules can be found in ChEMBL document CHEMBL4422622, “Identification of Mineralocorticoid Receptor Modulators with Low Impact on Electrolyte Homeostasis but Maintained Organ Protection” (J Med Chem, 2019).

Each structure is given as a SMILES string. pIC50, pKi: −log10 of the molar value. Values after ≈ are worked out from the molar mass of the structure shown.

Series [1] is described as follows: Kinetic solubility of compound at pH 7.4 after 24 hrs by shake-flask assay. The following applies: buffer, read-out: -log(solubility) (converted). The format is physicochemical.
Series [2] addresses T1, Mineralocorticoid receptor (Homo sapiens, UniProt P08235).
T1 sequence (P08235 whole entry): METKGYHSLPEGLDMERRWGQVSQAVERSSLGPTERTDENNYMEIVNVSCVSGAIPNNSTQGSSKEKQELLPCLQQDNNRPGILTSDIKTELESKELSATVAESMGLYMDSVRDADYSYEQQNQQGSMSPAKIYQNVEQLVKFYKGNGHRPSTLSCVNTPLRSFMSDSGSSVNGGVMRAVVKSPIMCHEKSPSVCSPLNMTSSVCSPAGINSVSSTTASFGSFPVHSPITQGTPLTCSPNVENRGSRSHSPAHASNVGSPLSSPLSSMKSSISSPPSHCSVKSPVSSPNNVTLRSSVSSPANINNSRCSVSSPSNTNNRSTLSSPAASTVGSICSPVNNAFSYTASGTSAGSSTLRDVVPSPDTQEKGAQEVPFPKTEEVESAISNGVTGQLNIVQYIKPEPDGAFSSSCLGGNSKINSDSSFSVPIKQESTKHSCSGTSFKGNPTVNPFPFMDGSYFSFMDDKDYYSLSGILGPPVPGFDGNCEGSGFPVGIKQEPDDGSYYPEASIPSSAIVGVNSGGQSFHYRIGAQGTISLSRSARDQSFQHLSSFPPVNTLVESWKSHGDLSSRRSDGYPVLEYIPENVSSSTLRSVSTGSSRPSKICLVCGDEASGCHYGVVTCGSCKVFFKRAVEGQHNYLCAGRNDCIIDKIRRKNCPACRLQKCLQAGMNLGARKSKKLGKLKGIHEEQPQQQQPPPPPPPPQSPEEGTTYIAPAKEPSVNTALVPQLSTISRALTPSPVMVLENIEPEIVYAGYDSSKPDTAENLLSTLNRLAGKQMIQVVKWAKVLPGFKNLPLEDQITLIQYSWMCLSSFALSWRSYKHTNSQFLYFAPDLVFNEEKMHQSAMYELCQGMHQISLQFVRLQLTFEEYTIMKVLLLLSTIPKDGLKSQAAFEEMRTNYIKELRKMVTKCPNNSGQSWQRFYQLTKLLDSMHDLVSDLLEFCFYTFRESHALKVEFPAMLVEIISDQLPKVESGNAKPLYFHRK
Description: Antagonist activity at gal4-fused human mineralocorticoid receptor LBD expressed in UAS-MR-bla HEK293 cells by luciferase reporter gene assay

Series [3] deals with T1, Mineralocorticoid receptor. This is another data set of the same source.
Description: Displacement of [3H]-aldosterone to human mineralocorticoid receptor LBD by radiometric binding assay
A short description of series [4]: Intrinsic clearance in human liver microsomes at 1 uM measured up to 30 mins in presence of NADPH by LC-MS/MS analysis. In kind it is ADME, Microsome. Conditions: read-out: CLH. A general note: Liver microsomes are a subcellular fraction often used to study metabolism.
A short description of series [5]: Octanol-water partitioning co-efficient, log D of the compound at pH 7.4 by LC/MS/MS analysis. In kind it is physicochemical.
The target in another series is T2, Glucocorticoid receptor (Homo sapiens, UniProt P04150).
T2 sequence (P04150 whole entry): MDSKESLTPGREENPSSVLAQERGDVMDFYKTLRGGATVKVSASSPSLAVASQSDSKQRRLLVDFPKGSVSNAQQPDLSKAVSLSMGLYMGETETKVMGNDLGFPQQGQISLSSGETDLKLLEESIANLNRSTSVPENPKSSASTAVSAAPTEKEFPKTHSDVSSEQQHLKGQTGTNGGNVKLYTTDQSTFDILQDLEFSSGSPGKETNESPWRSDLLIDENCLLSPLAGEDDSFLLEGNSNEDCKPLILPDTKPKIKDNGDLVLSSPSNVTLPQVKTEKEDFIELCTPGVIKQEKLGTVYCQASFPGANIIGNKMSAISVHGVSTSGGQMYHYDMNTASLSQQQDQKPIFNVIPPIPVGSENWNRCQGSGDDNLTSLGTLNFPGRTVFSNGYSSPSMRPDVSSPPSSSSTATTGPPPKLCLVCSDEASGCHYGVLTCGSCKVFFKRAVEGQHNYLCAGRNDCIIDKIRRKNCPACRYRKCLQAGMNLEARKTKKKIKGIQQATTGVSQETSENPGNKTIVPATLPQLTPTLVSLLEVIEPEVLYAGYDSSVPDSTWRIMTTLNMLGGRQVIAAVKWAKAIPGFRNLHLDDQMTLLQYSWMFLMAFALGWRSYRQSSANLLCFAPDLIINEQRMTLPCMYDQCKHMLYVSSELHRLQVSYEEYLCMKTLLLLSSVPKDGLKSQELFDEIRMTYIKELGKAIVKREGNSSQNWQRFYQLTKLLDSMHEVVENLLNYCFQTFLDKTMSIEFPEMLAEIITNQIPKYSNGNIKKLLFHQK

A short description of series [6]: Intrinsic clearance in human hepatocytes assessed per million cells at 1 uM measured up to 120 mins in presence of NADPH by LC-MS/MS analysis. The format is ADME, cell-based, Hepatocyte. Conditions: read-out: CLH.
Series [7] can be described thus: Apparent permeability in human Caco2 cells at 10 uM after 45 to 120 mins by LC/MS/MS analysis. The format is ADME, cell-based. The following applies: Caco-2. For orientation: Caco-2 monolayers are a common model of the intestinal barrier.

Description for Glucocorticoid receptor: Binding affinity to recombinant human GR LBD by fluormone GS red-fluorescence polarization assay

In the case of `N#CC[C@H]1COc2ccccc2N1C(=O)c1ccc2c(c1)NC(=O)CO2`, the solubility kinetic at 24 h in series [1] was 794 µM (≈ 277 µg/mL). The same molecule had a pIC50 in series [2] of 5.40. For the same molecule, the pKi in series [3] is 6.30. Moreover, the microsomal CLint at 1 µM in series [4] came to 34 µL/min/mg. This molecule registered a logD in series [5] of 1.5.

With `O=C1COc2ccc(C(=O)N3CCOc4ccccc43)cc2N1`, the solubility kinetic at 24 h in series [1] is 15.8 µM (≈ 4.92 µg/mL). The pIC50 in series [2] is 5.50. In series [3], this molecule gave a pKi of 6.00. Moreover, in series [4], the microsomal CLint at 1 µM came to 4 µL/min/mg. The molecule further gave a logD in series [5] of 2.

As for `C[C@@H]1CCc2cc(F)ccc2N1C(=O)c1ccc2c(c1)NC(=O)CO2`, in series [1], the solubility kinetic at 24 h is 100 µM (≈ 34 µg/mL). Moreover, the pIC50 in series [2] was under 5.00. This molecule had a negative-log Ki (pKi) in series [3] of 5.20. In series [4], the microsomal CLint at 1 µM came out at 70 µL/min/mg. This molecule also displayed a pH-dependent lipophilicity (logD) in series [5] of 2.9.

Regarding `COC(=O)C[C@H]1COc2cc(F)ccc2N1C(=O)c1ccc2c(c1)NC(=O)CO2`, the solubility kinetic at 24 h in series [1] is 398 µM (≈ 159 µg/mL). In series [2], this molecule had a pIC50 of 6.50. Moreover, the pKi in series [3] is 7.20. In addition, the microsomal CLint at 1 µM in series [4] was over 300 µL/min/mg. The molecule also had a logD in series [5] of 2.2.

On to `O=C1COc2ccc(C(=O)N3CCCc4ccccc43)cc2N1`, for which, in series [1], the solubility kinetic at 24 h is 50.1 µM (≈ 15.5 µg/mL). Further, the pIC50 in series [2] was 5.70. In series [3], this molecule had a pKi of 6.20. In addition, in series [4], the microsomal CLint at 1 µM is 27 µL/min/mg. Moreover, the log distribution coefficient (logD) in series [5] is 2.4.

Turning to `CNC(=O)C[C@H]1CCc2cc(F)ccc2N1C(=O)c1ccc2c(c1)NC(=O)CO2`, the pKi at Glucocorticoid receptor is 5.20; in series [3], 6.50. In series [6], the hepatocyte CLint at 1 µM was under 1.8 µL/min/1e6 cells. Besides, the Papp at 10 µM in series [7] amounted to 6.3 ×10⁻⁶ cm/s. Also, the pIC50 in series [2] was 5.70. For the same molecule, in series [5], the logD came to 1.4.

On to `Cc1ccc(C2CCCCN2S(=O)(=O)c2ccc3c(c2)NC(=O)CO3)cc1` (racemic), for which the solubility kinetic at 24 h in series [1] was under 0.794 µM. In addition, the pIC50 in series [2] was 5.20. The microsomal CLint at 1 µM in series [4] is 120 µL/min/mg. Moreover, the logD in series [5] is 3.3.

With `CC1CCc2ccccc2N1S(=O)(=O)c1ccc2c(c1)NC(=O)CO2` (racemic), the solubility kinetic at 24 h in series [1] is 20 µM (≈ 7.15 µg/mL). In series [2], the pIC50 was 5.30. Also, the negative logarithm of the Ki (pKi) in series [3] was 5.70. Also, the microsomal CLint at 1 µM in series [4] is over 300 µL/min/mg. The same molecule registered a logD in series [5] of 3.3.

Turning to `CC1CCc2ccccc2N1C(=O)c1ccc2c(c1)NC(=O)CO2` (racemic), the solubility kinetic at 24 h in series [1] was 50.1 µM (≈ 16.2 µg/mL). The same molecule gave a pIC50 in series [2] of 5.80. In series [3], the pKi is 6.10. Also, the microsomal CLint at 1 µM in series [4] was 128 µL/min/mg. In series [5], the logD was determined as 2.7.

For the molecule `CCNC(=O)CC1COc2cc(F)ccc2N1C(=O)c1ccc2c(c1)NC(=O)CO2` (racemic), the values for the pKi (at Glucocorticoid receptor; in series [3]) were under 4.80 and under 5.00, respectively. In addition, in series [6], the hepatocyte CLint at 1 µM came out at 3 µL/min/1e6 cells. Further, in series [7], the Papp at 10 µM stood at 10 ×10⁻⁶ cm/s. For the same molecule, the pIC50 in series [2] was under 5.00. Further, the logD in series [5] was found to be 1.6.

A word on the pIC50: it is −log10 of the IC50, conventionally taken in molar units. For orientation: pKi means the negative decadic logarithm of the Ki, by convention in mol/L. A lower pKi goes with a large Ki. Broadly, the logD is lipophilicity at a set pH, counting ionised and neutral species. The low end stands for a more hydrophilic compound, the high end for a more lipophilic compound. In general, Papp refers to a coefficient for how fast a substance crosses the barrier.
